Tested on: DOHH2 and TMD8 DLBCL cells
Test: Gene expression profiling (HumanHT-12 v4 BeadChip, limma), ST7612AA1 300 nM 8 hrs vs DMSO
Assay type: cell-based, human
Conditions: 300 nM 8 hrs vs DMSO

CC(=O)SCCCCC[C@H](NC(=O)[C@H]1CCC(=O)N1)C(=O)Nc1ccccc1 [ST7612AA1]
log ratio LOC285359 (ILMN_1675878): 6.44E-01 | log ratio LOC388588 (probe ILMN_1749834): 7.07E-01 | log ratio LOC389816 (ILMN_2249018): 6.55E-01 | log ratio LOC643384 (ILMN_3219806): -1.06E+00 | log ratio LOC644563 (ILMN_3207122): -1.31E+00 | log ratio LOC644988 (ILMN_3201485): 6.07E-01 | log ratio LOC646463 (ILMN_1721651): 6.71E-01 | log ratio LOC646786 (ILMN_1654915): 6.50E-01 | log ratio LOC646817 (ILMN_1702585): -1.11E+00 | log ratio LOC647784 (ILMN_1674710): 6.05E-01 | log ratio LOC650215 (ILMN_1743711): -8.77E-01 | log ratio LOC653566 (ILMN_1780382): -6.21E-01 | log ratio LOC654191 (probe ILMN_1762308): 7.84E-01 | log ratio LOC727935 (probe ILMN_1691616): 7.14E-01 | log ratio LOC728014 (probe ILMN_1711699): 8.58E-01 | log ratio LOC728492 (ILMN_1655444): -8.05E-01 | log ratio LOC728602 (ILMN_3305993): 6.70E-01 | log ratio LOC728650 (ILMN_3234615): -8.83E-01 | log ratio LOC729495 (probe ILMN_3297510): 7.45E-01 | log ratio LOC730101 (probe ILMN_3305735): 7.41E-01 | log ratio LOC730415 (probe ILMN_3228688): 6.95E-01 | log ratio LOC731049 (ILMN_1808591): 6.61E-01 | log ratio LOC731314 (probe ILMN_1785756): 8.31E-01 | log ratio LOC100128163 (probe ILMN_3182893): 7.83E-01 | log ratio LOC100130919 (ILMN_3176090): -8.14E-01 | log ratio LOC100131727 (probe ILMN_3292990): 7.73E-01 | log ratio LOC100131735 (ILMN_3208233): -5.90E-01 | log ratio LOC100132715 (ILMN_3211935): -5.93E-01 | log ratio LOC100133583 (probe ILMN_3214389): 8.94E-01 | log ratio LOC100133678 (probe ILMN_3249667): 8.11E-01 | log ratio LOC100134361 (probe ILMN_3241081): 8.59E-01 | log ratio LPCAT3 (ILMN_1805225): 6.30E-01 | log ratio LRCH4 (probe ILMN_2157075): 8.54E-01 | log ratio LRP8 (ILMN_1677765): -8.68E-01 | log ratio LRRC1 (probe ILMN_1755383): 7.83E-01 | log ratio LRRC16 (ILMN_1736730): 5.94E-01 | log ratio LRRC32 (ILMN_2129161): 6.30E-01 | log ratio LRRC33 (ILMN_1746148): -1.42E+00 | log ratio LRRFIP2 (ILMN_1707156): 6.31E-01 | log ratio LRRK1 (ILMN_1696004): -8.42E-01 | log ratio LTA4H (probe ILMN_1690342): 7.50E-01 | log ratio LUZP1 (ILMN_1714159): 6.25E-01 | log ratio LYAR (ILMN_1764362): -8.62E-01 | log ratio LYAR (ILMN_2221564): -9.24E-01 | log ratio LYRM5 (probe ILMN_1744534): 7.90E-01 | log ratio LYRM7 (ILMN_3238623): 6.34E-01 | log ratio LYSMD4 (probe ILMN_2159859): 6.95E-01 | log ratio MAD2L2 (ILMN_1669550): 6.43E-01 | log ratio MAK16 (ILMN_1777139): -7.86E-01 | log ratio MAP1LC3B (probe ILMN_1703244): 7.73E-01 | log ratio MAP1S (ILMN_1796336): 6.11E-01 | log ratio MAP2K1 (probe ILMN_1694240): 7.15E-01 | log ratio MAPKAPK2 (ILMN_1774844): 6.77E-01 | log ratio MAPRE2 (probe ILMN_1695276): 7.72E-01 | log ratio MARCKSL1 (probe ILMN_1714433): 8.47E-01 | log ratio MAST3 (probe ILMN_1738749): 7.21E-01 | log ratio MCL1 (ILMN_1756806): 6.49E-01 | log ratio MCRS1 (ILMN_1784227): -9.30E-01 | log ratio MED24 (ILMN_2388272): -6.00E-01 | log ratio MEPCE (ILMN_2180827): -8.77E-01 | log ratio METTL1 (ILMN_1815190): -9.82E-01 | log ratio METTL1 (ILMN_3306997): -9.97E-01 | log ratio MEX3C (ILMN_1658182): -6.16E-01 | log ratio MGC3731 (ILMN_1759991): -9.43E-01 | log ratio MGEA5 (ILMN_1686750): 6.73E-01 | log ratio MINA (ILMN_1746025): -5.93E-01 | log ratio MNS1 (probe ILMN_2157240): 7.07E-01 | log ratio MPDU1 (ILMN_1655654): -1.02E+00 | log ratio MPDU1 (ILMN_2070815): -8.19E-01 | log ratio MRLC2 (ILMN_1654016): 5.90E-01 | log ratio MRPL3 (ILMN_1713143): -8.76E-01 | log ratio MRPL20 (ILMN_2189424): -8.46E-01 | log ratio MRPL24 (ILMN_2398995): -6.00E-01 | log ratio MRPL35 (ILMN_2341952): -5.96E-01 | log ratio MRPL54 (ILMN_1658486): -9.87E-01 | log ratio MRPS26 (ILMN_1676026): -7.88E-01 | log ratio MRPS30 (ILMN_1726743): -5.98E-01 | log ratio MRPS35 (ILMN_2189993): -8.24E-01 | log ratio MRTO4 (ILMN_1689800): -9.19E-01 | log ratio MTE (probe ILMN_2136089): 8.56E-01 | log ratio MTHFD1L (ILMN_1772521): -9.66E-01 | log ratio MTHFS (ILMN_1772302): -1.28E+00 | log ratio MTP18 (ILMN_2355665): -9.91E-01 | log ratio MTX3 (ILMN_1679071): -6.10E-01 | log ratio MYB (ILMN_1711894): -9.88E-01 | log ratio MYBL1 (probe ILMN_3241046): 7.69E-01 | log ratio MYD88 (ILMN_1738523): -1.17E+00 | log ratio MYH9 (ILMN_1722872): 6.24E-01 | log ratio MYH10 (ILMN_1815154): 5.97E-01 | log ratio N6AMT2 (ILMN_1730260): -9.90E-01 | log ratio NARG1 (ILMN_1669142): -6.10E-01 | log ratio NBN (ILMN_1734833): -9.40E-01 | log ratio NECAP2 (ILMN_1749011): 6.12E-01 | log ratio NEK2 (ILMN_2051373): 6.21E-01 | log ratio NGDN (ILMN_1690049): -6.03E-01 | log ratio NIP7 (ILMN_1704305): -1.05E+00 | log ratio NLGN2 (ILMN_1764158): 6.16E-01 | log ratio NMI (ILMN_1739541): -9.86E-01 | log ratio NOL6 (ILMN_2320250): -8.75E-01 | log ratio NOL11 (ILMN_1688971): -7.88E-01 | log ratio NOP16 (ILMN_3247723): -1.13E+00 | log ratio NOSIP (probe ILMN_1759436): 7.06E-01 | log ratio NPC2 (probe ILMN_1716678): 8.44E-01 | log ratio NPHP3 (ILMN_1730539): 6.73E-01 | log ratio NPL (probe ILMN_1782070): 7.76E-01 | log ratio NPL (probe ILMN_2149494): 8.88E-01 | log ratio NQO2 (probe ILMN_1712918): 8.69E-01 | log ratio NSMAF (ILMN_1716596): -1.37E+00 | log ratio NUB1 (probe ILMN_1665291): 7.20E-01 | log ratio NUCKS1 (ILMN_3251404): -5.98E-01 | log ratio NUDT6 (ILMN_2366972): 5.92E-01 | log ratio NUDT15 (ILMN_1751403): -5.98E-01 | log ratio NUMB (probe ILMN_2331266): 7.27E-01 | log ratio NUP188 (ILMN_1715416): -5.95E-01 | log ratio NXF1 (probe ILMN_1705783): 8.80E-01 | log ratio NXF1 (probe ILMN_2358652): 7.18E-01 | log ratio NXT1 (ILMN_1760280): -8.51E-01 | log ratio OAS2 (ILMN_2248970): -1.29E+00 | log ratio OSBPL2 (ILMN_1656482): 6.07E-01 | log ratio P704P (probe ILMN_1793950): 6.85E-01 | log ratio PAG1 (ILMN_2055156): 6.63E-01 | log ratio PAQR3 (ILMN_1716071): 6.81E-01 | log ratio PAQR8 (probe ILMN_1694589): 7.20E-01 | log ratio PCMT1 (ILMN_1671621): 6.27E-01 | log ratio PCTP (ILMN_1802257): 6.55E-01 | log ratio PCYOX1 (probe ILMN_1679725): 7.89E-01 | log ratio PDCD2 (ILMN_1758915): -8.70E-01 | log ratio PDXK (probe ILMN_1672504): 8.94E-01 | log ratio PECI (probe ILMN_2384536): 8.25E-01 | log ratio PEMT (ILMN_1745806): -5.93E-01 | log ratio PEX16 (probe ILMN_1745655): 7.84E-01 | log ratio PFKFB3 (ILMN_2186061): 6.71E-01 | log ratio PHF5A (ILMN_2112402): -8.44E-01 | log ratio PHF15 (ILMN_1795285): -8.13E-01 | log ratio PHF19 (ILMN_1713249): -1.52E+00 | log ratio PHF19 (ILMN_1745420): -1.01E+00 | log ratio PIGW (ILMN_1743397): -1.03E+00 | log ratio PIM2 (probe ILMN_1748283): 7.43E-01 | log ratio PITX1 (ILMN_1674386): -8.58E-01 | log ratio PKIA (ILMN_1762262): 6.12E-01 | log ratio PKIA (probe ILMN_2337974): 7.37E-01 | log ratio PLD3 (probe ILMN_1666976): 8.81E-01 | log ratio PLD6 (ILMN_1731518): -1.18E+00 | log ratio PLD6 (ILMN_3240586): -1.84E+00 | log ratio PLIN2 (ILMN_2138765): 5.92E-01 | log ratio PLS1 (ILMN_1759206): 6.43E-01 | log ratio PLXNA3 (ILMN_1719972): 6.52E-01 | log ratio PMAIP1 (probe ILMN_2098446): 8.50E-01 | log ratio PNKD (probe ILMN_1774604): 7.25E-01

Source: PMC4467398, “Preclinical antitumor activity of ST7612AA1: a new oral thiol-based histone deacetylase (HDAC) inhibitor” (Oncotarget, 2014)
